# Source: US6462039B1, “Fungicidal benzoheterocyclyloxime” (Bayer Aktiengesellschaft, priority 1998, dated 2002)
# Where two headings read alike, the source gives them in different places.
# What was measured:
# [1] = tested on: Erysiphe graminis f.sp. hordei; test: Erysiphe test (barley)/protective; type: in vivo; details: protective, application rate 250 g/ha, evaluation 7 days after inoculation
# Procedure: Erysiphe Test (Barley)/Protective Solvent: 25 parts by weight of N,N-dimethylacetamide Emulsifier: 0.6 part by weight of alkylaryl polyglycol ether To produce a suitable preparation of active compound 1 part by weight of active compound is mixed with the stated amounts of solvent and emulsifier and the concentrate is diluted with water to the desired concentration. To test for protective activity, young plants are sprayed with the preparation of active compound at the stated application rate. After the spray coating has dried on, the plants are dusted with spores of Erysiphe graminis f.sp. hordei. The plants are placed in a greenhouse at a temperature of approximately 20° C. and a relative atmospheric humidity of approximately 80% to promote the development of mildew pustules.
# [2] = tested on: Erysiphe graminis f.sp. hordei; test: Erysiphe test (barley)/curative; type: in vivo; details: curative (sprayed 48 hours after inoculation), application rate 250 g/ha, evaluation 7 days after inoculation
# Procedure: Erysiphe Test (Barley)/Curative Solvent: 25 parts by weight of N,N-dimethylacetamide Emulsifier: 0.6 part of weight of alkylaryl polyglycol ether To produce a suitable preparation of active compound 1 part by weight of active compound is mixed with the stated amounts of solvent and emulsifier and the concentrate is diluted with water to the desired concentration. To test for curative activity, young plants are dusted with spores of Erysiphe graminis f.sp. hordei. 48 hours after the inoculation, the plants are sprayed with the preparation of active compound at the stated application rate. The plants are placed in a greenhouse at a temperature of approximately 20° C. and a relative atmospheric humidity of approximately 80% to promote the development of mildew pustules.
# [3] = tested on: Fusarium nivale (var. nivale); test: Fusarium nivale (var. nivale) test (wheat)/protective; type: in vivo; details: protective, application rate 250 g/ha, evaluation 4 days after inoculation
# Source text: Fusarium Nivale (Var. Nivale) Test (Wheat)/Protective Solvent: 25 parts by weight of N,N-dimethylacetamide Emulsifier: 0.6 part by weight of alkylaryl polyglycol ether […] To test for protective activity, young plants are sprayed with the preparation of active compound at the stated application rate. After the spray coating has dried on, the plants are sprayed with a conidia suspension of Fusarium nivale (var. nivale).
# Puccinia recondita = test: Puccinia test (wheat)/protective; type: in vivo; details: protective, application rate 250 g/ha, evaluation 10 days after inoculation
# Procedure: Puccinia Test (Wheat)/Protective Solvent: 25 parts by weight of N,N-dimethylacetamide Emulsifier: 0.6 part by weight of alkylaryl polyglycol ether […] To test for protective activity, young plants are sprayed with the preparation of active compound at the stated application rate. After the spray coating has dried on, the plants are dusted with a conidia suspension of Puccinia recondita. […] The plants are then placed in a greenhouse at a temperature of approximately 20° C. and a relative atmospheric humidity of 80% to promote the development of rust pustules.
chromatographic logP (physchem),Structure (SMILES),chromatographic logP,further results
2.25,C/C(=N/O)c1cn(C(F)F)c2ccccc12 [(II-a-7)],,
,CCn1cc(C(C)=O)c2ccccc21 [(V-2)],2.35,
,CC(=O)c1cn(C(F)F)c2ccccc12 [(V-7)],2.22,
,"CC(=O)c1nn(C(F)F)c2ccccc12 [Example (V-1), 1-(1-difluoromethyl-1H-indazol-3-yl)-ethanone]",2.67,
,C=CCn1nc(C(C)=O)c2ccccc21 [(V-4)],2.53,
1.99,COc1ccc2c(C(C)=O)nn(C)c2c1 [(V-6)],,
,CC(=O)c1nn(C(C)C)c2ccccc12 [(V-5)],2.98,
2.55,CCCn1nc(/C(C)=N\O)c2ccccc21 [(II-a-3)],,
2.28,C=CCn1nc(/C(C)=N\O)c2ccccc21 [(II-a-4)],,
2.72,C/C(=N/O)c1nn(C(C)C)c2ccccc12 [(II-a-5)],,
,CCCn1nc(C(C)=O)c2ccccc21 [(V-3)],2.81,
2.13,CCn1nc(/C(C)=N\O)c2ccccc21 [(II-a-2)],,
,"CO/N=C(/C1=NOCCO1)c1ccccc1CO/N=C(\C)c1nn(C)c2ccccc12 [Example 1, O-{2-[(5,6-dihydro-[1,4,2]dioxazin-3-yl)-methoxyiminomethyl]-benzyl}1-(1-methyl-1H-indazol-3-yl)-ethanone-oxime]",,efficacy [1]: 100%; efficacy [2]: 100%; efficacy [3]: 100%; efficacy (Puccinia recondita): 100%

Structure (SMILES),chromatographic logP (physchem),chromatographic logP,further results
COc1ccc2c(/C(C)=N\O)nn(C)c2c1 [(II-a-6)],1.76,,
